These results are taken from the supplement of paper PMC6045584.

Compound in assay [1]: CCN(CC)CCCCNc1ncc2cc(-c3cc(OC)cc(OC)c3)c(NC(=O)NC(C)(C)C)nc2n1
Kind of assay: surviving fraction relative to DMSO-only wells; higher = less growth inhibition. As to conditions: exposure time: 5 days. The gist of the method:
(§1)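 Five days of continuous inhibitor exposure, at 0.5, 1, 5, 10, 50, 100, 500 and 1000 nM, followed a 24-hour period after log-phase tumour cell lines were seeded at 250–500 cells per well in 384-well plates. Surviving fraction was derived from CellTiter-Glo luminescence relative to the median of DMSO-only wells. Plates were read after 10 minutes at room temperature, and lines screened three times were kept only if replicate Pearson r >0.7 and median Z' >0.3.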

Compound in the next assay: CC[C@@H](C(=O)[C@@H](C)[C@@H](O)[C@H](C)[C@@H]1O[C@@H]([C@@H](CC)C(=O)O)CC[C@@H]1C)[C@H]1O[C@]2(C=C[C@@H](O)[C@]3(CC[C@@](C)([C@H]4CC[C@](O)(CC)[C@H](C)O4)O3)O2)[C@H](C)C[C@@H]1C [SALINOMYCIN]
The assay is described as above. The conditions noted are these: exposure time: 5 days. The gist of the method:
as §1

± gives the standard deviation of the averaged measurements.

Consider SUM159 BREAST, for which the surviving fraction in assay [1] (0.5 nM) was 1.14 ± 0.3; in assay [1] (1 nM), 1.1 ± 0.2; in assay [1] (5 nM), 1.18 ± 0.36; in assay [1] (10 nM) it was 1.14 ± 0.26; in assay [1] (50 nM) it was 1.12 ± 0.26; in assay [1] (100 nM), 1.13 ± 0.23. The surviving fraction in assay [1] (500 nM) came to 1.11 ± 0.21; in assay [1] (1000 nM) it was 1.18 ± 0.3; in the assay with SALINOMYCIN (0.5 nM) it was 0.979 ± 0.033; with SALINOMYCIN (1 nM), 0.92 ± 0.13; in the assay with SALINOMYCIN (5 nM), 0.865 ± 0.25; with SALINOMYCIN (10 nM) it was 0.934 ± 0.12. The surviving fraction in the assay with SALINOMYCIN (50 nM) came to 0.648 ± 0.14; in the assay with SALINOMYCIN (100 nM) it was 0.475 ± 0.18; with SALINOMYCIN (500 nM) it was 0.32 ± 0.088; with SALINOMYCIN (1000 nM) it was 0.268 ± 0.092.
Take SYO1 SYNOVIAL: the surviving fraction in assay [1] (0.5 nM) was 0.786 ± 0.081; in assay [1] (1 nM), 0.961 ± 0.052; in assay [1] (5 nM), 0.859 ± 0.044; in assay [1] (10 nM), 0.868 ± 0.043; in assay [1] (50 nM) it was 0.699 ± 0.016; in assay [1] (100 nM) it was 0.727 ± 0.056. Also, the surviving fraction in assay [1] (500 nM) came out at 0.669 ± 0.055; in assay [1] (1000 nM), 0.653 ± 0.009; with SALINOMYCIN (0.5 nM), 0.905 ± 0.038; in the assay with SALINOMYCIN (1 nM) it was 0.832 ± 0.089; with SALINOMYCIN (5 nM), 0.876 ± 0.056; with SALINOMYCIN (10 nM), 0.475 ± 0.14. For the same test system, the surviving fraction was found to be 0.949 ± 0.04 with SALINOMYCIN (50 nM), 0.804 ± 0.1 with SALINOMYCIN (100 nM), 0.293 ± 0.02 in the assay with SALINOMYCIN (500 nM) and 0.117 ± 0.028 with SALINOMYCIN (1000 nM).
As for T47D BREAST, the surviving fraction in assay [1] (0.5 nM) was found to be 0.967 ± 0.03; in assay [1] (1 nM) it was 1.02 ± 0.028; in assay [1] (5 nM) it was 1.02 ± 0.047; in assay [1] (10 nM), 1.01 ± 0.017; in assay [1] (50 nM), 1.03 ± 0.023; in assay [1] (100 nM), 1.02 ± 0.043. The surviving fraction in assay [1] (500 nM) came to 1.02 ± 0.054; in assay [1] (1000 nM), 1.08 ± 0.03; in the assay with SALINOMYCIN (0.5 nM), 1 ± 0.034; with SALINOMYCIN (1 nM), 1.017 ± 0.0096; with SALINOMYCIN (5 nM), 0.983 ± 0.04; with SALINOMYCIN (10 nM), 0.898 ± 0.047. The surviving fraction came to 1.07 ± 0.015 with SALINOMYCIN (50 nM), 1.07 ± 0.046 with SALINOMYCIN (100 nM), 0.891 ± 0.041 with SALINOMYCIN (500 nM) and 0.631 ± 0.018 in the assay with SALINOMYCIN (1000 nM).
Regarding U2OS BONE, the surviving fraction was 1 ± 0.011 in assay [1] (0.5 nM); 0.994 ± 0.026 in assay [1] (1 nM); 1.03 ± 0.045 in assay [1] (5 nM); 1.01 ± 0.02 in assay [1] (10 nM); 0.916 ± 0.012 in assay [1] (50 nM); 0.825 ± 0.017 in assay [1] (100 nM). For the same test system, the surviving fraction stood at 0.745 ± 0.049 in assay [1] (500 nM); 0.739 ± 0.0095 in assay [1] (1000 nM); 1.01 ± 0.022 with SALINOMYCIN (0.5 nM); 1.02 ± 0.04 with SALINOMYCIN (1 nM); 1.01 ± 0.016 with SALINOMYCIN (5 nM); 1.015 ± 0.0081 with SALINOMYCIN (10 nM). For the same test system, the surviving fraction with SALINOMYCIN (50 nM) was 1.06 ± 0.019; with SALINOMYCIN (100 nM) it was 1.04 ± 0.029; with SALINOMYCIN (500 nM), 0.783 ± 0.024; with SALINOMYCIN (1000 nM), 0.538 ± 0.035.
For VCAP PROSTATE, the surviving fraction worked out at 0.963 ± 0.068 in assay [1] (0.5 nM); 1.07 ± 0.06 in assay [1] (1 nM); 1.04 ± 0.047 in assay [1] (5 nM); 1.1 ± 0.028 in assay [1] (10 nM); 1.06 ± 0.034 in assay [1] (50 nM); 1.12 ± 0.069 in assay [1] (100 nM). The surviving fraction was 0.998 ± 0.059 in assay [1] (500 nM); 1.01 ± 0.055 in assay [1] (1000 nM); 1.07 ± 0.18 with SALINOMYCIN (0.5 nM); 1.04 ± 0.12 with SALINOMYCIN (1 nM); 1.09 ± 0.074 with SALINOMYCIN (5 nM); 1.14 ± 0.053 with SALINOMYCIN (10 nM). Also, the surviving fraction was determined as 1.08 ± 0.13 with SALINOMYCIN (50 nM), 1.04 ± 0.023 in the assay with SALINOMYCIN (100 nM), 0.245 ± 0.044 with SALINOMYCIN (500 nM) and 0.144 ± 0.0072 with SALINOMYCIN (1000 nM).
As for VP229 BREAST, the surviving fraction amounted to 1.15 ± 0.079 in assay [1] (0.5 nM); 1.09 ± 0.031 in assay [1] (1 nM); 1.1 ± 0.12 in assay [1] (5 nM); 1.11 ± 0.028 in assay [1] (10 nM); 1.22 ± 0.12 in assay [1] (50 nM); 1.11 ± 0.13 in assay [1] (100 nM). Also, the surviving fraction was determined as 1.22 ± 0.061 in assay [1] (500 nM); 1.15 ± 0.11 in assay [1] (1000 nM); 0.949 ± 0.074 with SALINOMYCIN (0.5 nM); 0.907 ± 0.022 with SALINOMYCIN (1 nM); 1.04 ± 0.15 with SALINOMYCIN (5 nM); 0.891 ± 0.12 in the assay with SALINOMYCIN (10 nM). The surviving fraction with SALINOMYCIN (50 nM) amounted to 0.831 ± 0.14; in the assay with SALINOMYCIN (100 nM) it was 0.52 ± 0.021; with SALINOMYCIN (500 nM), 0.139 ± 0.017; in the assay with SALINOMYCIN (1000 nM), 0.133 ± 0.015.
Consider YAMATO SYNOVIAL, for which the surviving fraction in assay [1] (0.5 nM) is 0.852 ± 0.029; in assay [1] (1 nM) it was 1.2 ± 0.13; in assay [1] (5 nM), 1.19 ± 0.058; in assay [1] (10 nM) it was 1.31 ± 0.062; in assay [1] (50 nM) it was 1.14 ± 0.024; in assay [1] (100 nM) it was 1.37 ± 0.037. Besides, the surviving fraction in assay [1] (500 nM) stood at 1.2 ± 0.069; in assay [1] (1000 nM), 1.08 ± 0.088; with SALINOMYCIN (0.5 nM), 1.11 ± 0.044; with SALINOMYCIN (1 nM) it was 0.733 ± 0.042; with SALINOMYCIN (5 nM), 0.984 ± 0.046; in the assay with SALINOMYCIN (10 nM), 0.216 ± 0.0092. The surviving fraction is 1.05 ± 0.08 in the assay with SALINOMYCIN (50 nM), 0.655 ± 0.029 with SALINOMYCIN (100 nM), 0.359 ± 0.013 with SALINOMYCIN (500 nM) and 0.133 ± 0.013 in the assay with SALINOMYCIN (1000 nM).
As to ZR751 BREAST, the surviving fraction stood at 0.946 ± 0.032 in assay [1] (0.5 nM); 1.03 ± 0.063 in assay [1] (1 nM); 0.954 ± 0.017 in assay [1] (5 nM); 1.01 ± 0.19 in assay [1] (10 nM); 0.912 ± 0.04 in assay [1] (50 nM); 1.1 ± 0.11 in assay [1] (100 nM). Further, the surviving fraction was 1.01 ± 0.067 in assay [1] (500 nM); 1.05 ± 0.12 in assay [1] (1000 nM); 1.05 ± 0.086 in the assay with SALINOMYCIN (0.5 nM); 1.01 ± 0.11 with SALINOMYCIN (1 nM); 0.992 ± 0.14 with SALINOMYCIN (5 nM); 1.03 ± 0.092 with SALINOMYCIN (10 nM). Moreover, the surviving fraction with SALINOMYCIN (50 nM) came out at 1.17 ± 0.15; with SALINOMYCIN (100 nM) it was 0.787 ± 0.089; with SALINOMYCIN (500 nM) it was 0.408 ± 0.055; with SALINOMYCIN (1000 nM), 0.289 ± 0.024.
